Experimental data taken from the CheMixHub ionic liquid set.

Assay: xn = mol fraction of the nth substance listed

CCCCCCCCCCCCCCCC[N+](C)(C)C.[Br-] + O=C[C@H](O)[C@@H](O)[C@H](O)[C@H](O)CO + O
viscosity [mPa·s], 100 kPa
Settings	298.15 K	308.15 K	318.15 K
x2 = 0, x1 = 7.21e-06	0.896	0.742	0.617
x2 = 0, x1 = 1.442e-05	0.898	0.744	0.617
x2 = 0, x1 = 2.162e-05	0.9	0.745	0.617
x2 = 0.0008068, x1 = 7.2e-06	0.918	0.76	–
x2 = 0.000976, x1 = 1.44e-05	0.926	–	0.635
x2 = 0.0009851, x1 = 2.16e-05	–	0.768	0.636
x2 = 0.00106, x1 = 7.2e-06	–	–	0.636
x2 = 0.001255, x1 = 2.16e-05	–	0.774	0.641
x2 = 0.001314, x1 = 1.44e-05	–	0.774	–
x2 = 0.001569, x1 = 7.2e-06	0.939	0.777	0.645
x2 = 0.001577, x1 = 2.159e-05	0.946	0.782	0.647
x2 = 0.001582, x1 = 1.439e-05	0.943	–	0.647
x2 = 0.001962, x1 = 7.19e-06	0.949	–	–
x2 = 0.001965, x1 = 2.158e-05	0.957	0.791	0.655
x2 = 0.00197, x1 = 1.439e-05	0.955	–	0.654
x2 = 0.002321, x1 = 7.19e-06	–	0.793	0.659
x2 = 0.00235, x1 = 1.438e-05	–	0.798	–
x2 = 0.002365, x1 = 2.157e-05	0.968	0.8	0.662
x2 = 0.002661, x1 = 1.438e-05	0.974	0.805	0.667
x2 = 0.002693, x1 = 2.157e-05	0.978	0.808	0.669
x2 = 0.0027, x1 = 7.19e-06	0.969	0.802	–

C1CN=C2CCCN2C1 + O=S(=O)([N-]S(=O)(=O)C(F)(F)F)C(F)(F)F.[Li+]
101 kPa, frequency 0 MHz, x1 = 0.8
Settings	electrical conductivity [S/m]
338.15 K	0.0385
368.15 K	0.152

101 kPa, x1 = 0.8
Settings	viscosity [mPa·s]
338.15 K	236
368.15 K	37.77

CCCC[P+](c1ccccc1)(c1ccccc1)c1ccccc1.[Br-] + O=S=O + OCCO
100 kPa
Settings	viscosity [mPa·s]
303.15 K, x2 = 0.01371, x3 = 0.9622	22
313.15 K, x2 = 0.01059, x3 = 0.9653	18.4
323.15 K, x2 = 0.008625, x3 = 0.9672	15.5
333.15 K, x2 = 0.007346, x3 = 0.9684	12.9
343.15 K, x2 = 0.005964, x3 = 0.9698	11.5

CC[NH3+].O=[N+]([O-])[O-] + O=[N+]([O-])[O-].O=[N+]([O-])[O-].[Ca+2] + O
100 kPa
Settings	electrical conductivity [S/m]	viscosity [mPa·s]
223 K, x2 = 0.05128, x3 = 0.1778	0.001	–
233 K, x2 = 0.05128, x3 = 0.1778	0.009	–
233 K, x2 = 0.09755, x3 = 0.3019	0.009	–
243 K, x2 = 0.05128, x3 = 0.1778	0.034	–
243 K, x2 = 0.09755, x3 = 0.3019	0.034	–
253 K, x2 = 0.05128, x3 = 0.1778	0.095	–
253 K, x2 = 0.09755, x3 = 0.3019	0.095	–
263 K, x2 = 0.05128, x3 = 0.1778	0.209	–
263 K, x2 = 0.09755, x3 = 0.3019	0.209	–
273 K, x2 = 0.05128, x3 = 0.1778	0.394	–
273 K, x2 = 0.09755, x3 = 0.3019	0.394	–
283 K, x2 = 0.05128, x3 = 0.1778	0.662	–
283 K, x2 = 0.09755, x3 = 0.3019	0.662	–
288.15 K, x2 = 0.05128, x3 = 0.1778	–	131.6
288.15 K, x2 = 0.09755, x3 = 0.3019	–	160.5
293 K, x2 = 0.05128, x3 = 0.1778	1.02	–
293 K, x2 = 0.09755, x3 = 0.3019	1.02	–
293.15 K, x2 = 0.05128, x3 = 0.1778	–	106.7
293.15 K, x2 = 0.09755, x3 = 0.3019	–	127.9
298.15 K, x2 = 0.05128, x3 = 0.1778	–	87.1
298.15 K, x2 = 0.09755, x3 = 0.3019	–	102.8
303 K, x2 = 0.05128, x3 = 0.1778	1.47	–
303 K, x2 = 0.09755, x3 = 0.3019	1.47	–
303.15 K, x2 = 0.05128, x3 = 0.1778	–	71.6
303.15 K, x2 = 0.09755, x3 = 0.3019	–	83.2
308.15 K, x2 = 0.05128, x3 = 0.1778	–	59.2
308.15 K, x2 = 0.09755, x3 = 0.3019	–	67.8
313 K, x2 = 0.05128, x3 = 0.1778	2.01	–
313 K, x2 = 0.09755, x3 = 0.3019	2.01	–
313.15 K, x2 = 0.05128, x3 = 0.1778	–	49.3
313.15 K, x2 = 0.09755, x3 = 0.3019	–	55.59
323 K, x2 = 0.05128, x3 = 0.1778	2.64	–
323 K, x2 = 0.09755, x3 = 0.3019	2.64	–
333 K, x2 = 0.05128, x3 = 0.1778	3.35	–
333 K, x2 = 0.09755, x3 = 0.3019	3.35	–
343 K, x2 = 0.05128, x3 = 0.1778	4.13	–
343 K, x2 = 0.09755, x3 = 0.3019	4.13	–
353 K, x2 = 0.05128, x3 = 0.1778	4.98	–
353 K, x2 = 0.09755, x3 = 0.3019	4.98	–
363 K, x2 = 0.05128, x3 = 0.1778	5.89	–
363 K, x2 = 0.09755, x3 = 0.3019	5.89	–
373 K, x2 = 0.05128, x3 = 0.1778	6.84	–
373 K, x2 = 0.09755, x3 = 0.3019	6.84	–

CCCCCCCCCCCCCCCC[N+](C)(C)C.[Br-] + OC1OC[C@@H](O)[C@H](O)[C@H]1O + O
viscosity [mPa·s], 100 kPa
Settings	298.15 K	308.15 K	318.15 K
x1 = 7.21e-06, x2 = 0	0.896	0.742	0.617
x1 = 1.442e-05, x2 = 0	0.898	0.744	0.617
x1 = 2.162e-05, x2 = 0	0.9	0.745	0.617

C[P+](c1ccccc1)(c1ccccc1)c1ccccc1.[Br-] + OCC(O)CO
Settings	electrical conductivity [S/m]	viscosity [mPa·s]
298 K, 101.3 kPa, x1 = 0.2	–	352
298.2 K, 101 kPa, x1 = 0.2	–	1894
322.36 K, 101 kPa, x2 = 0.75	–	272
327.54 K, 101 kPa, x2 = 0.75	–	204
328.15 K, 101.3 kPa, x2 = 0.6364	0.09	410
